Assays:
JJ5 breast cancer cells [1] = assay: Growth inhibition assay against JJ5 breast cancer cells; assay type: cell-based, human; details: 4 days culture
Description: Growth medium was added and the cells were cultured at 37° C./5% CO^2 for 4 days. The cells were then recovered by trypsinization and counted in a hemocytometer. Control dishes contained cells cultured in growth medium containing ^111In-DTPA or growth medium alone.

JJ5 breast cancer cells [2] = assay: Cytotoxicity (colony-forming) assay against JJ5 breast cancer cells; assay type: cell-based, human; details: 14 days
Description: The number of cells seeded was varied from 3×10^4 to 3×10^6 cells to obtain approximately 400 viable colonies/dish taking into account the plating efficiency and the expected level of cytotoxicity. Control dishes contained JJ5 breast cancer cells which were incubated with normal saline. Growth medium was added and the cells were cultured at 37° C./5% CO^2 for 14 days. The growth medium was removed and the colonies were stained with methylene blue (1% in a 1:1 mixture of ethanol and water) then washed twice. The number of colonies per dish was counted using a manual colony counter (Manostat Corp). The plating efficiency was calculated by dividing the number of colonies observed by the number of cells seeded in each dish.

[3] = system: JJ5 Breast Cancer cells (EGFR); assay: Binding of EGF-^111In-labeled transferrin compound to breast cancer cells (radioligand binding, kinetics, retention); design: species or system human
Description: For the normal breast cell line HBL-100, 8000 EGFR/cell has been reported. The expression of EGFR in breast cancer cell lines has a reported range of 800 EGFR/cell for MCF-7 cells to 10^6 EGFR/cell for MDA-MB-468 cells. […] Utilizing the Auger electron emitter ^111In was used in the initial experiments to illustrate the utility of the invention using EGF-^111In-labeled transferrin compounds. The EGF-^111In-labeled transferrin (0.25-80 ng) was incubated with 1.5×10^6 cells/dish JJ5 Breast Cancer (prepared from BCBM JJ5) cells in 1 mL of 0.1% human serum albumin in 35 mm multiwell culture dishes at 37° C. for 30 minutes. The cells were transferred to a centrifuge tube and centrifuged. The cell pellet was separated from the supernatant and counted in a g-scintillation counter to determine bound (B) and free (F) radioactivity. Non-specific binding was determined by conducting the assay in 100 nM hEGF. […] Internalized fraction was measured by determining the proportion of radioactivity which could not be displaced from the cell surface by 100 nM hEGF. Cell-associated binding (surface-binding and intracellular accumulation) was expressed as a percentage of medium radioactivity bound per mg of cell study protein.

Row | Compound | growth inhibition of the JJ5 cells compared to the medium control (JJ5 breast cancer cells [1]; 3.5 pCi/cell) [%] | cell killing (JJ5 breast cancer cells [2]; <6 pCi/cell) | internalization by cancer cells (in words) ([3]; JJ5 cells) | number of binding sites ([3]; JJ5 cells) | binding by the breast cancer cells (kinetics, in words) ([3]; JJ5 cells, 37° C.) | time retained by the breast cancer cells ([3]; JJ5 cells, 37° C.) | affinity constant for binding to JJ5 cells ([3]; JJ5 cells, 37° C., 30 minutes) [L/mol] | ^111In radioactivity lost from the cells in vitro ([3]; over a 24 hour period at 37° C.) [%] | growth inhibition of the JJ5 cells compared to the medium control (JJ5 breast cancer cells [1]; 3.4 pCi/cell) [%] | reduction in cell survival for JJ5 cells (JJ5 breast cancer cells [2]; 8 pCi/cell) [%]
1 | [In+3].[O-]c1cccc2cccnc12.[O-]c1cccc2cccnc12.[O-]c1cccc2cccnc12 [^111In-oxine, reference compound] | 91 | greater than 99% |  |  |  |  |  |  |  | 
2 | EGF-^111In-labeled transferrin compound: human EGF linked via PEG3400-biotin or peptide linker-biotin to streptavidin-transferrin, transferrin labeled with ^111In |  |  | rapidly internalized | 2.7×10^6 | rapidly bound | at least 24 hours | 8e+08 | < 8 | 83 | 99

Source: US20040219103A1, “Methods useful for the diagnosis, imaging and treatment of tumors” (priority 2003, published 2004)
